Values of other authors, collected in article PMC11272189, “PNA5, A Novel Mas Receptor Agonist, Improves Neurovascular and Blood-Brain-Barrier Function in a Mouse Model of Vascular Cognitive Impairment and Dementia” (Aging and Disease, 2024).

System: healthy control mice
Details: daily injections at 1mg/kg/day
Procedure: All use of animals in this study conformed to the guidelines approved by the Institutional Animal Care and Use Committee at the University of Arizona and in accordance with the National Institutes of Health Guidelines for the Care and Use of Laboratory Animals. Both the number of animals used, and their suffering were minimized. The number of animals needed for each experiment was determined using a G*Power analysis. Importantly for the present study, we have shown in previously published studies that treatment of healthy control mice with daily injections of PNA5 or the native peptide ...

With “Angiotensin-(1-7) (DRVYIHP; Angiotensin 1-7; UniProt P01019 25-31, looked up) [Ang-(1-7), native peptide]” as the substance, how does the “effect on heart function, cognitive function or circulating cytokines” value read?
The value was “no effect”.
